# Paper PMC9324199 (Angewandte Chemie (International Ed. in English), 2022)
# pKi: −log10 of the molar value.
# Biological target: 5-HT2A (Homo sapiens, UniProt P28223)
# Experiment: PDSP radioligand binding
# 5-HT2A, sequence (P28223 whole entry, species assumed): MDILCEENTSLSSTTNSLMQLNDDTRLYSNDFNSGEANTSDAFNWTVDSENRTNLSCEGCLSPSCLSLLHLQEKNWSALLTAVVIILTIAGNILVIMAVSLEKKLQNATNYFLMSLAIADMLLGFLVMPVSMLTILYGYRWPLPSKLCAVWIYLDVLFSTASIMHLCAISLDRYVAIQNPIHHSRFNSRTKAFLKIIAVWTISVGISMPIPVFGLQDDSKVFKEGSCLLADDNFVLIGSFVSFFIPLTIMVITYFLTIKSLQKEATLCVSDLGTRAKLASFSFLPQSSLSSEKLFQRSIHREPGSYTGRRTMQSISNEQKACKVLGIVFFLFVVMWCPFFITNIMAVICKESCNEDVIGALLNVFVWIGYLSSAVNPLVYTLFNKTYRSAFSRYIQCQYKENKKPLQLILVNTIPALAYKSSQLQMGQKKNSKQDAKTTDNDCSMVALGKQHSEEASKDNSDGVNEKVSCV
smiles,measurement,value
COc1ccc(N=Nc2ccc3[nH]cc(CCN(C)C)c3c2)cc1 [2h],pKi,6.65
